Values of other authors in patent EP0301423B1 (CHIESI FARMACEUTICI S.p.A., priority 1987, dated 1989).

Key:
coronary flow = details: mice
isolated coronary artery = details: mice

SMILES: CCNc1cc(C)nc2ncnn12 [TP1]
- effect on coronary flow (coronary flow): increase in the coronary flow
- effect on the isolated coronary artery (isolated coronary artery): relaxation of the isolated coronary artery
